According to US12486251B2 (PHARMABLOCK SCIENCES (NANJING) , INC., priority 2020, dated 2025):
pIC50: −log10 of the molar value.

biological target: CBP recombinant proteins (Homo sapiens (Human), UniProt Q92793); assay: Competitive HTRF assay for affinity to CBP recombinant protein; type: binding; conditions: His-tagged CBP 5 nM, biotin-labeled ligand 50 nM, 1% DMSO
Protocol: The affinity of the compounds synthesized in the present patert to the CBP recombinant proteins was determined by competitive HTRF method. His-tagged cyclic adenosine monophosphate response element binding protein (CREB-binding protein, CBP) was expressed in Escherichia coli system and further purified. CBP biotinylated ligands were all self-made. The BL21 star (DE3) competert cells transfected with His-tagged CBP protein genes at N-terminal were cultured at 37° C. for 16 h until the OD value was between 0.6 and 0.8, induced by 0.5 mM of IPTG and cultured overnight. The supernatant of cell lysate was purified by a Ni-ion affinity column and a Superdex75 molecular sieve column sequentially. The purity of resulting CBP proteins was 95%. The fluorescent donor reagent MAb Anti 6HIS—Eu cryptate Gold (Cisbio #61HI2KLA), the receptor reagent Streptavidin-XL665 (#610SAXLA) and the detection buffer (#62SDBRDD) required for HTRF were obtained from CISBIO BIOASSAYS (Codolet, France). Tris(2-carboxyethyl)phosphine hydrochloride (TCEP), sodium chloride, adenosine triphosphate (ATP), Tween-20, dimethylsulfoxide (DMSO), bovine serum albumin (BSA) and HEPES buffer were obtained from SIGMA at the highest level commercially available.
The general procedure of the competitive HTRF assay for the affinity to CBP recombinant proteins is as follows: 0.05% Tween-20 and 1 mM of TCEP were added immediately before the assay, and the assay was performed in a buffer consisting of 0.1 mg/ml BSA, 50 mM of HEPES and 5 mM of NaCl of pH 7.5. 2.5 μL of compound solution in a determination buffer with 4% DMSO and 5 μL of CBP solution in a determination buffer were added to a white low-volume 384-well microtiter plate, incubated at room temperature for 20 min, and then incubated at room temperature for 40 min by adding 2.5 μL of biotin-labeled ligand solution to the determination buffer. The final concentrations of CBP, biotin-labeled ligand and DMSO were 5 nM, 50 nM and 1%, respectively. Then, 5 μL of MAb Anti 6HIS—Eu cryptate Gold and […] of Streptavidin-XL665 in detection buffers from the manufacturer were added to the mixture, and the mixture was incubated for another 60 min. The final concentration of Streptavidin-XL665 was 12.5 nM, and MAb Anti 6HIS—Eu cryptate Gold was diluted according to the final concentration provided by the supplier. The multimode reader Spark from TECAN (Mannedorf, Switzerland) was used to read the plate to detect the homogeneous time-resolved fluorescence intensity of two groups, in which the excitation wavelength was 320 nm and the emission wavelengths were 665 nm and 620 nm. The IC50 value of the inhibitor was obtained by fitting fluorescence intensity ratios at 665 nm/620 nm with respect to the inhibitor concentration in an S-shaped dose-response curve by using Prism 7 (La Jolla, 15 CA).

CBP recombinant proteins, sequence (Q92793 whole entry): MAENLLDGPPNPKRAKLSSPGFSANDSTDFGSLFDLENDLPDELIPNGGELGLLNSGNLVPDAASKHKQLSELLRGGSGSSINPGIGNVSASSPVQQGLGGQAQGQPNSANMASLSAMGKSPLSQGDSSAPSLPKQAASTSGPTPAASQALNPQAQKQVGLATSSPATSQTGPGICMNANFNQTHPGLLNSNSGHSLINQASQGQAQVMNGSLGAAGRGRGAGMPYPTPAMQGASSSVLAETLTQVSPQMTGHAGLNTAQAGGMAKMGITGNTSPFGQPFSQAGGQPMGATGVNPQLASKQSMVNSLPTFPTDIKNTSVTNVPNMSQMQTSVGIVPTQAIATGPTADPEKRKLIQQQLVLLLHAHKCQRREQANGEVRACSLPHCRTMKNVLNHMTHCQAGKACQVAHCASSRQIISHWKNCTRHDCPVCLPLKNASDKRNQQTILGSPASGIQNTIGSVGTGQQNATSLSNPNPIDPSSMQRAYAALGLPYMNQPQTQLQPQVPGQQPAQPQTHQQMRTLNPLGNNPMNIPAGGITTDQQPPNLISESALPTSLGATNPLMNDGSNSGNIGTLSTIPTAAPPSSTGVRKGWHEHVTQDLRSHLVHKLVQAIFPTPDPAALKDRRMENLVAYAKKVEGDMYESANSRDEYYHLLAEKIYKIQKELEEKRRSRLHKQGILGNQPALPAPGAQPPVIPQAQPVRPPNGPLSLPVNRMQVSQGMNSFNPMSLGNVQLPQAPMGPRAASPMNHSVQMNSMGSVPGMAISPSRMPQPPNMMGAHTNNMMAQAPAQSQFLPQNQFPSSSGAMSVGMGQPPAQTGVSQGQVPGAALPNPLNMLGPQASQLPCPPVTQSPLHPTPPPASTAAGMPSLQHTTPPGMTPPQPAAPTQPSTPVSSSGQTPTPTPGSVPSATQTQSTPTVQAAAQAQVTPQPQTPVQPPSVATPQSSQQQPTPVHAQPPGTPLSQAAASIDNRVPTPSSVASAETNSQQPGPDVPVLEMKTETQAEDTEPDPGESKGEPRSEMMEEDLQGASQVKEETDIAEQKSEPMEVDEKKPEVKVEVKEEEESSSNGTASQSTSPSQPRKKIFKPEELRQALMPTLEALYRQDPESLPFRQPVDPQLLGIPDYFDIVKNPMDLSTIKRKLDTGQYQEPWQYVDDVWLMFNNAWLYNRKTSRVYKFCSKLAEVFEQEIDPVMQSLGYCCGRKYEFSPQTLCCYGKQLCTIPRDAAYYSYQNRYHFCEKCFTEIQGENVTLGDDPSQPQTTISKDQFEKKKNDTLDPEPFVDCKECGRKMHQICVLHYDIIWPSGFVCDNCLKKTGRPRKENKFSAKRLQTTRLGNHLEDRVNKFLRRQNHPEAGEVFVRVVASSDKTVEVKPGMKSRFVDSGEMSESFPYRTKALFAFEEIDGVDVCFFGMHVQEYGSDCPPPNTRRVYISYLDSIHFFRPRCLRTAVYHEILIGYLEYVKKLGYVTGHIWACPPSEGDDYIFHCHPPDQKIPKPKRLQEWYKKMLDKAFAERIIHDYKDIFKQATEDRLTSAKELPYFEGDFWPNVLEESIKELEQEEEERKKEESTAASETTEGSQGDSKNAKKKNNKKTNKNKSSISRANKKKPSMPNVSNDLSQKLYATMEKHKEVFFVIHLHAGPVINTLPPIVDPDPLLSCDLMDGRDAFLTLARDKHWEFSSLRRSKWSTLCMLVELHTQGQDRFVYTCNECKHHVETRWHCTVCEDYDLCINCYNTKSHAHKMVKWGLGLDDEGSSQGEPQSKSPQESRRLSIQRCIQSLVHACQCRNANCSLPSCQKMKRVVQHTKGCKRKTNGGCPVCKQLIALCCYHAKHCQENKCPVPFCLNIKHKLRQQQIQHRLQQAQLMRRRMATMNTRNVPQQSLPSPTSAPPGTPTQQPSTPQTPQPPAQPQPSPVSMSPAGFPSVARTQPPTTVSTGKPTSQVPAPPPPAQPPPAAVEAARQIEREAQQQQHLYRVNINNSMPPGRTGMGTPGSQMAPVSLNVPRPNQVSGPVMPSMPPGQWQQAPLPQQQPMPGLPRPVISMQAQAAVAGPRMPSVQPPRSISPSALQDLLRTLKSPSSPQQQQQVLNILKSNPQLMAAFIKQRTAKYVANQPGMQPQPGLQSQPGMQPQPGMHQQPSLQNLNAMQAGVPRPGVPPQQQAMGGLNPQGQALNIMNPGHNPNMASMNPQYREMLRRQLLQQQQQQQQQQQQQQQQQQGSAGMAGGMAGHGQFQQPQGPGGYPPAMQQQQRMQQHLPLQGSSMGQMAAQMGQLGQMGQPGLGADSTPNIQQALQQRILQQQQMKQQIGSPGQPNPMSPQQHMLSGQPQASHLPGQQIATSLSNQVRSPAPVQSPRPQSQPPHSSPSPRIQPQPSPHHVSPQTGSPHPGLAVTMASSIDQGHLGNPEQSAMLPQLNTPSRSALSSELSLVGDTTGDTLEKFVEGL

Row | SMILES | pIC50
1 | CNC(=O)c1cc2ccccc2c(N2CCCc3cc(-c4cnn(C)c4)ccc32)n1 [Example 1, 1-[6-(1-methyl-1H-pyrazol-4-yl)-3,4-dihydro-2H-quinolin-1-yl]-isoquinoline-3-carboxylic acid methylamide] | 7.14
2 | CNC(=O)c1cc2ccccc2c(N2CCCc3cc(-c4cnn(C)c4)c(C(F)F)cc32)n1 [Example 2, 1-[7-difluoromethyl-6-(1-methyl-1H-pyrazol-4-yl)-3,4-dihydro-2H-quinolin-1-yl]isoquinoline-3-carboxylic acid methylamide] | 7.72
3 | Cn1cc(-c2cc3c(cc2C(F)F)N(c2nc(C(N)=O)cc4ccccc24)CCC3)cn1 [Example 3, 1-[7-difluoro-methyl-6-(1-methyl-1H-pyrazol-4-yl)-3,4-dihydro-2H-quinolin-1-yl]-isoquinoline-3-carboxylic acid amide] | 6.61
4 | CN(C)C(=O)c1cc2ccccc2c(N2CCCc3cc(-c4cnn(C)c4)c(C(F)F)cc32)n1 [Example 4, 1-[7-difluoro-methyl-6-(1-methyl-1H-pyrazol-4-yl)-3,4-dihydro-2H-quinolin-1-yl]-isoquinoline-3-carboxylic acid dimethylamide] | < 6.00
5 | CCNC(=O)c1cc2ccccc2c(N2CCCc3cc(-c4cnn(C)c4)c(C(F)F)cc32)n1 [Example 5, 1-[7-difluoro-methyl-6-(1-methyl-1H-pyrazol-4-yl)-3,4-dihydro-2H-quinolin-1-yl]-isoquinoline-3-carboxylic acid ethylamide] | < 6.00
6 | Cn1cc(-c2cc3c(cc2C(F)F)N(c2nc(C(=O)NCCO)cc4ccccc24)CCC3)cn1 [Example 6, 1-[7-difluoro-methyl-6-(1-methyl-1H-pyrazol-4-yl)-3,4-dihydro-2H-quinolin-1-yl]-isoquinoline-3-carboxylic acid(2-hydroxy-ethyl)-amide] | < 6.00
7 | CC(O)CNC(=O)c1cc2ccccc2c(N2CCCc3cc(-c4cnn(C)c4)c(C(F)F)cc32)n1 (stereo not drawn) [Example 7, 1-[7-difluoro-methyl-6-(1-methyl-1H-pyrazol-4-yl)-3,4-dihydro-2H-quinolin-1-yl]-isoquinoline-3-carboxylic acid(2-hydroxy-propyl)-amide] | < 6.00
8 | Cn1cc(-c2cc3c(cc2C(F)F)N(c2nc(C(=O)N4CC(O)C4)cc4ccccc24)CCC3)cn1 [Example 8, {1-[7-difluoro-methyl-6-(1-methyl-1H-pyrazol-4-yl)-3,4-dihydro-2H-quinolin-1-yl]-isoquinolin-3-yl}-(3-hydroxy-azetidine-1-yl)methanone] | < 6.00
9 | Cn1cc(-c2cc3c(cc2C(F)F)N(c2nc(C(=O)NC4CC4)cc4ccccc24)CCC3)cn1 [Example 9, 1-[7-difluoro-methyl-6-(1-methyl-1H-pyrazol-4-yl)-3,4-dihydro-2H-quinolin-1-yl]-isoquinoline-3-carboxylic acid cyclopro-pylamide] | < 6.00
10 | CNC(=O)c1cccc(N2CCCc3cc(-c4cnn(C)c4)c(C(F)F)cc32)n1 [Example 11] | < 6.00
11 | CNC(=O)c1nc(N2CCCc3cc(-c4cnn(C)c4)c(C(F)F)cc32)c2ccccc2n1 [Example 12, 4-[7-difluoro-methyl-6-(1-methyl-1H-pyrazol-4-yl)-3,4-dihydro-2H-quinolin-1-yl]-quinazolin-2-carboxylic acid methylamide] | < 6.00
12 | CNC(=O)c1cc2cnccc2c(N2CCCc3cc(-c4cnn(C)c4)c(C(F)F)cc32)n1 [Example 13, 2-[7-difluoro-methyl-6-(1-methyl-1H-pyrazol-4-yl)-3,4-dihydro-2H-quinolin-1-yl]-[2,6] naphthyridine-3-carboxylic acid methylamide] | 7.68
13 | CNC(=O)c1cc2ccncc2c(N2CCCc3cc(-c4cnn(C)c4)c(C(F)F)cc32)n1 [Example 14, 1-[7-difluoro-methyl-6-(1-methyl-1H-pyrazol-4-yl)-3,4-dihydro-2H-quinolin-1-yl]-[2,7] naphthyridine-3-carboxylic acid methylamide] | 7.82
14 | CNC(=O)c1cc2cccnc2c(N2CCCc3cc(-c4cnn(C)c4)c(C(F)F)cc32)n1 [Example 15, 8-[7-difluoro-methyl-6-(1-methyl-1H-pyrazol-4-yl)-3,4-dihydro-2H-quinolin-1-yl]-[1,7] naphthyridine-6-carboxylic acid methylamide] | 8.12
15 | CNC(=O)c1cc2ccc(C3=CCOCC3)cc2c(N2CCCc3cc(-c4cnn(C)c4)c(C(F)F)cc32)n1 [Example 16, 1-[7-difluoromethyl-6-(1-methyl-1H-pyrazol-4-yl)-3,4-dihydro-2H-quinolin-1-yl]-7-(3,6-dihydro-2H-pyran-4-yl)-isoquinoline-3-carboxylic acid methylamide] | 7.89
16 | CNC(=O)c1cc2ccc(C3CCOCC3)cc2c(N2CCCc3cc(-c4cnn(C)c4)c(C(F)F)cc32)n1 [Example 17, 1-[7-difluoromethyl-6-(1-methyl-1H-pyrazol-4-yl)-3,4-dihydro-2H-quinolin-1-yl]-7-(tetrahydro-4-yl)-isoquinoline-3-carboxylic acid methylamide] | 7.92
17 | CNC(=O)c1cc2ccc(C3=CCOC3)cc2c(N2CCCc3cc(-c4cnn(C)c4)c(C(F)F)cc32)n1 [Example 18, 1-[7-difluoromethyl-6-(1-methyl-1H-pyrazol-4-yl)-3,4-dihydro-2H-quinolin-1-yl]-7-(2,5-dihydro-furan-3-yl)-isoquinoline-3-carboxylic acid methylamide] | 7.72
18 | CNC(=O)c1cc2ccc(C3CCOC3)cc2c(N2CCCc3cc(-c4cnn(C)c4)c(C(F)F)cc32)n1 (stereo not drawn) [Example 19, 1-[7-difluoromethyl-6-(1-methyl-1H-pyrazol-4-yl)-3,4-dihydro-2H-quinolin-1-yl]-7-(tetrahydrofuran-3-yl)-isoquinoline-3-carboxylic acid methylamide] | 8.16
19 | CNC(=O)c1cc2cc(C3=CCOCC3)ccc2c(N2CCCc3cc(-c4cnn(C)c4)c(C(F)F)cc32)n1 [Example 20, 1-[7-difluoromethyl-6-(1-methyl-1H-pyrazol-4-yl)-3,4-dihydro-2H-quinolin-1-yl]-6-(3,6-dihydro-2H-pyran-4-yl)-isoquino-line-3-carboxylic acid methylamide] | 7.74
20 | CNC(=O)c1cc2cc(C3CCOCC3)ccc2c(N2CCCc3cc(-c4cnn(C)c4)c(C(F)F)cc32)n1 [Example 21, 1-[7-difluoromethyl-6-(1-methyl-1H-pyrazol-4-yl)-3,4-dihydro-2H-quinolin-1-yl]-6-(tetrahydro-pyran-4-yl)-isoquinoline-3-carboxylic acid methylamide] | 7.42
21 | CNC(=O)c1cc2cc(C3=CCOC3)ccc2c(N2CCCc3cc(-c4cnn(C)c4)c(C(F)F)cc32)n1 [Example 22, 1-[7-difluoromethyl-6-(1-methyl-1H-pyrazol-4-yl)-3,4-dihydro-2H-quinolin-1-yl]-6-(2,5-dihydro-furan-3-yl)-isoquinoline-3-carboxylic acid methylamide] | 7.66
22 | CNC(=O)c1cc2cc(C3CCOC3)ccc2c(N2CCCc3cc(-c4cnn(C)c4)c(C(F)F)cc32)n1 (stereo not drawn) [Example 23, 1-[7-difluoromethyl-6-(1-methyl-1H-pyrazol-4-yl)-3,4-dihydro-2H-quinolin-1-yl]-6-(tetrahydrofuran-3-yl)-isoquinoline-3-carboxylic acid methylamide] | 7.74
23 | CNC(=O)c1cc2ccc(N3CCOC3=O)cc2c(N2CCCc3cc(-c4cnn(C)c4)c(C(F)F)cc32)n1 [Example 24, 1-[7-difluoromethyl-6-(1-methyl-1H-pyrazol-4-yl)-3,4-dihydro-2H-quinolin-1-yl]-7-(2-oxo-oxazolidin-3-yl)-isoquinoline-3-carboxylic acid methylamide] | 8.11
24 | CNC(=O)c1cc2cc(N3CCOC3=O)ccc2c(N2CCCc3cc(-c4cnn(C)c4)c(C(F)F)cc32)n1 [Example 25, 1-[7-difluoromethyl-6-(1-methyl-1H-pyrazol-4-yl)-3,4-dihydro-2H-quinolin-1-yl]-6-(2-oxo-oxazolidin-3-yl)-isoquinoline-3-carboxylic acid methylamide] | 8.38
